Experimental data: publication PMC10385865, “Synthesis and Anticancer Activity of Novel Dual Inhibitors of Human Protein Kinases CK2 and PIM-1” (Pharmaceutics, 2023)

Assays:
[1] = molecular target: CK2; set-up: method as in PMID 33807474; details: Figure 1, representative CK2 inhibitors; cited from earlier work
[2] = molecular target: T1, human CK2 holoenzyme (CK2α2β2) (Homo sapiens, UniProt P68400); experiment: P81 filter isotopic (radiometric) kinase assay, CK2 holoenzyme; assay type: biochemical; details: substrate peptide […], Ki from IC50 by Cheng–Prusoff
T1 construct: made in house
Experimental: (§1) The obtained compounds were tested for their inhibitory activity toward human CK2α, human CK2 holoenzyme, and PIM-1 using a P81 filter isotopic assay as described previously. […] The experimental data were fitted to the sigmoidal dose–response equation, i.e., (variable slope) Y = Bottom + (Top-Bottom)/(1 + 10^((LogIC50−X)∗HillSlope), in GraphPad Prism (Prism 9, v. 9.0.1).
(§2) Inhibition of the human CK2 catalytic subunit (CK2α), CK2 holoenzyme (CK2α2β2), and PIM-1 by the newly obtained compounds was evaluated using a radiometric assay (Table 1, Figure S2). The synthetic peptide […] was used as the substrate of CK2, and peptide […] was used as the substrate of PIM-1. The values of the inhibition constant (Ki) were calculated using the Cheng–Prusoff equation: Ki = IC50/(1 + [S]/Km).

[3] = system: K-562 (chronic myelogenous leukemia); experiment: MTT-based viability assay, K-562; assay type: cell-based, human; details: for IC50: Homo sapiens, K562, MTT, 48 h, read-out: IC50 K-562; for SI (selectivity index) K-562: IC50 Vero/IC50 cancer cells
Experimental: (§3) After incubation with the tested compounds, an MTT test was performed as described previously. Optical densities were measured at 570 nm using a BioTek microplate reader (BioTek Instruments, Inc., Winooski, VT, USA). All measurements were carried out in a minimum of three biological replicates.
(§4) . The IC50 values describing the half-maximal effective concentration of each tested compound were calculated and are summarized in Table 2. […].

[4] = molecular target: T2, PIM-1 (Homo sapiens, UniProt P11309); experiment: P81 filter isotopic (radiometric) kinase assay, PIM-1; assay type: biochemical; details: substrate peptide […], Ki from IC50 by Cheng–Prusoff
T2 construct: made in house
Experimental: as §1, §2

[5] = system: Vero cells; experiment: MTT-based viability assay, non-cancerous Vero cells; assay type: cell-based, Cercopithecus aethiops; details: Chlorocebus sabaeus, MTT, 48 h, read-out: IC50 Vero
Experimental: as §3, §4

[6] = system: CCRF-CEM (acute lymphoblastic leukemia); experiment: MTT-based viability assay, CCRF-CEM; assay type: cell-based, human; details: for IC50: Homo sapiens, CCRF-CEM, MTT, 48 h, read-out: IC50 CCRF-CEM; for SI (selectivity index) CCRF-CEM: IC50 Vero/IC50 cancer cells
Experimental: as §3, §4

[7] = molecular target: T3, human CK2α (Homo sapiens, UniProt P68400); experiment: P81 filter isotopic (radiometric) kinase assay, CK2 catalytic subunit; assay type: biochemical; details: substrate peptide […], Ki from IC50 by Cheng–Prusoff
T3 construct: made in house
Experimental: as §1, §2

[8] = system: MCF-7 (breast carcinoma); experiment: MTT-based viability assay, MCF-7; assay type: cell-based, human; details: for IC50: Homo sapiens, MCF7, MTT, 48 h, read-out: IC50 MCF-7; for SI (selectivity index) MCF-7: IC50 Vero/IC50 cancer cells
Experimental: as §3, §4

[9] = molecular target: CK2-α; set-up: method as in PMID 23360763, PMID 24442476, PMID 34200807; details: Figure 1, dual CK2/PIM-1 inhibitors; cited from earlier work
[10] = molecular target: PIM1; set-up: method as in PMID 23360763, PMID 24442476, PMID 34200807; details: Figure 1, dual CK2/PIM-1 inhibitors; cited from earlier work

T3 sequence (P68400 whole entry): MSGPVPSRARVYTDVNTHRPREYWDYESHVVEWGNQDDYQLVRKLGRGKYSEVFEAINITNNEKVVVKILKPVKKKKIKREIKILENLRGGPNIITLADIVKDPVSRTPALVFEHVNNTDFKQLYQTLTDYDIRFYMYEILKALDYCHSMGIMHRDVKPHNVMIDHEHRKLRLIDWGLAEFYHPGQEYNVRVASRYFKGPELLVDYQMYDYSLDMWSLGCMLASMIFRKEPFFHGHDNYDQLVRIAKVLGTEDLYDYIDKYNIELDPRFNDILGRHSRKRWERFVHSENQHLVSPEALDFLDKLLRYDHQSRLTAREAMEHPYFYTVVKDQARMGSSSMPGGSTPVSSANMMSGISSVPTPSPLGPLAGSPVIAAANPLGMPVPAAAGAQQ
T1 sequence (P68400 whole entry): as above
T1 sequence (P67870 whole entry partner): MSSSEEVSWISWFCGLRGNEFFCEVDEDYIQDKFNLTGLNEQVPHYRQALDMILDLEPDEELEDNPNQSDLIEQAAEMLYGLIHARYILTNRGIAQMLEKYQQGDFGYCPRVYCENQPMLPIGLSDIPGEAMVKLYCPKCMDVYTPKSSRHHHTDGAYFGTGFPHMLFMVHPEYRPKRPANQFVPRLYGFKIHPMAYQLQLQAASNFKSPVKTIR
T2 sequence (P11309 whole entry): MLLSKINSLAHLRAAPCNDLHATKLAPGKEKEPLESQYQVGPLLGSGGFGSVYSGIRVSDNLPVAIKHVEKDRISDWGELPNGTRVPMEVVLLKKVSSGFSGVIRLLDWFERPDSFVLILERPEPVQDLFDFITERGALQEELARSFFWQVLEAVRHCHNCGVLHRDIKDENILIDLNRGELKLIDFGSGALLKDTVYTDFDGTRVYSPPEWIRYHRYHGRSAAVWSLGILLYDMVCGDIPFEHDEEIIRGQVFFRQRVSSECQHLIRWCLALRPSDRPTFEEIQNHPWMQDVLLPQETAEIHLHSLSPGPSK

Row | Ki [2] [µM] | IC50 [3] [µM] | Ki [4] [µM] | IC50 [6] [µM] | Ki [7] [µM] | IC50 [8] [µM] | Compound | Ki [1] [µM] | SI (selectivity index) K-562 [3] | IC50 [5] [µM] | SI (selectivity index) CCRF-CEM [6] | SI (selectivity index) MCF-7 [8] | Ki [9] [µM] | Ki [10] [µM]
1 |  |  |  |  |  |  | 4,5,6,7-tetrabromo-2,3-dihydro-1H-1,3-benzodiazol-2-one [Compound K37] | 0.07 |  |  |  |  |  | 
2 | 0.127 | 38.7 ± 8.08 | 0.064 | 21.7 ± 0.86 | 0.296 | 16.9 ± 0.3 | CC(O)CNc1nc2c(Br)c(Br)c(Br)c(Br)c2[nH]1 (racemic) [rac-5, 1-[(4,5,6,7-Tetrabromo-1H-benzimidazol-2-yl)amino]propan-2-ol] |  | 0.58 | 22.58 ± 0.13 | 1.04 | 1.34 |  | 
3 | 0.605 | 11.6 ± 2.85 | 0.267 | 13.6 ± 0.84 | 1.67 | 10.8 ± 0.23 | CCN(CC)CC(O)CNc1nc2c(Br)c(Br)c(Br)c(Br)c2[nH]1 (racemic) [rac-9, 1-(Diethylamino)-3-[(4,5,6,7-tetrabromo-1H-benzimidazol-2-yl)amino]propan-2-ol] |  | 1.03 | 12 ± 0.21 | 0.88 | 1.11 |  | 
4 | 0.089 | 41.5 ± 8.45 | 0.073 | 33.8 ± 0.26 | 0.151 | 17.2 ± 0.39 | OCC(O)CNc1nc2c(Br)c(Br)c(Br)c(Br)c2[nH]1 (racemic) [rac-11, 3-[(4,5,6,7-Tetrabromo-1H-benzimidazol-2-yl)amino]propane-1,2-diol] |  | 1.00 | 41.53 ± 0.1 | 1.23 | 2.41 |  | 
5 | 0.104 | 39.6 ± 8.11 | 0.089 | 22.31 ± 0.1 | 0.394 | 16.1 ± 0.19 | C[C@@H](O)CNc1nc2c(Br)c(Br)c(Br)c(Br)c2[nH]1 [(R)-5, (2R)-1-[(4,5,6,7-tetrabromo-1H-benzimidazol-2-yl)amino]propan-2-ol] |  | 0.71 | 28.3 ± 0.43 | 1.27 | 1.76 |  | 
6 | 0.167 | 39.3 ± 9.05 | 0.099 | 23.2 ± 4.01 | 0.271 | 16.6 ± 0.3 | C[C@H](O)CNc1nc2c(Br)c(Br)c(Br)c(Br)c2[nH]1 [(S)-5, (2S)-1-[(4,5,6,7-tetrabromo-1H-benzimidazol-2-yl)amino]propan-2-ol] |  | 0.64 | 25.2 ± 0.54 | 1.11 | 1.52 |  | 
7 | 0.114 | 33.7 ± 4.92 | 0.082 | 25.6 ± 0.54 | 0.156 | 18.2 ± 0.3 | OCCCNc1nc2c(Br)c(Br)c(Br)c(Br)c2[nH]1 [Compound 7, 3-[(4,5,6,7-Tetrabromo-1H-benzimidazol-2-yl)amino]propan-1-ol] |  | 0.87 | 29.46 ± 0.12 | 1.15 | 1.62 |  | 
8 | 0.072 | 40 ± 7.45 | 0.071 | 17.4 ± 0.27 | 0.256 | 15.1 ± 0.39 | CN(CCO)c1nc2c(Br)c(Br)c(Br)c(Br)c2[nH]1 [Compound 8, 2-[Methyl(4,5,6,7-tetrabromo-1H-benzimidazol-2-yl)amino]ethanol] |  | 0.40 | 16.1 ± 0.27 | 0.92 | 1.06 |  | 
9 | 0.124 | 38.1 ± 5.56 | 0.093 | 24.47 ± 0.21 | 0.139 | 16.6 ± 0.23 | OCC(CO)Nc1nc2c(Br)c(Br)c(Br)c(Br)c2[nH]1 [Compound 10, 2-[(4,5,6,7-Tetrabromo-1H-benzimidazol-2-yl)amino]propane-1,3-diol] |  | 0.66 | 25.19 ± 0.1 | 1.03 | 1.51 |  | 
10 |  |  |  |  |  |  | O=c1[nH]c2c(Br)c(Br)c(Br)c(Br)c2[nH]1 [Compound K32, 4,5,6,7-tetrabromo-2,3-dihydro-1H-1,3-benzodiazol-2-one] | 0.15 |  |  |  |  |  | 
11 |  |  |  |  |  |  | OC[C@H]1O[C@@H](n2cnc3cc(Cl)c(Cl)cc32)[C@H](O)[C@@H]1O [DRB, 5,6-dichloro-1-β-D-ribofuranosylbenzimidazole] | 23 |  |  |  |  |  | 
12 |  |  |  |  |  |  | Cc1nc2c(Br)c(Br)c(Br)c(Br)c2n1CCCO [N^1-PrOH-2-MeTBBi, 3-(4,5,6,7-tetrabromo-2-methyl-1H-1,3-benzodiazol-1-yl)propan-1-ol] |  |  |  |  |  | 0.05 | 0.15
13 |  |  |  |  |  |  | Brc1c(Br)c(Br)c2[nH]cnc2c1Br [TBBi, 4,5,6,7-tetrabromo-1H-benzimidazole] | 0.3 |  |  |  |  |  | 
14 |  |  |  |  |  |  | OC[C@H]1O[C@@H](n2cnc3c(Br)c(Br)c(Br)c(Br)c32)C[C@@H]1O [TDB (K164), 1-(β-D-2′-deoxyribofuranosyl)-4,5,6,7-tetrabromo-1H-benzimidazole] |  |  |  |  |  |  | 0.04
